Experimental data published in paper PMC10040380 (Cell Reports Medicine, 2023).

Biological target: T1, KCC2 (Homo sapiens, UniProt Q9H2X9)
T1 sequence (Q9H2X9 1-1116 isoform Q9H2X9-2): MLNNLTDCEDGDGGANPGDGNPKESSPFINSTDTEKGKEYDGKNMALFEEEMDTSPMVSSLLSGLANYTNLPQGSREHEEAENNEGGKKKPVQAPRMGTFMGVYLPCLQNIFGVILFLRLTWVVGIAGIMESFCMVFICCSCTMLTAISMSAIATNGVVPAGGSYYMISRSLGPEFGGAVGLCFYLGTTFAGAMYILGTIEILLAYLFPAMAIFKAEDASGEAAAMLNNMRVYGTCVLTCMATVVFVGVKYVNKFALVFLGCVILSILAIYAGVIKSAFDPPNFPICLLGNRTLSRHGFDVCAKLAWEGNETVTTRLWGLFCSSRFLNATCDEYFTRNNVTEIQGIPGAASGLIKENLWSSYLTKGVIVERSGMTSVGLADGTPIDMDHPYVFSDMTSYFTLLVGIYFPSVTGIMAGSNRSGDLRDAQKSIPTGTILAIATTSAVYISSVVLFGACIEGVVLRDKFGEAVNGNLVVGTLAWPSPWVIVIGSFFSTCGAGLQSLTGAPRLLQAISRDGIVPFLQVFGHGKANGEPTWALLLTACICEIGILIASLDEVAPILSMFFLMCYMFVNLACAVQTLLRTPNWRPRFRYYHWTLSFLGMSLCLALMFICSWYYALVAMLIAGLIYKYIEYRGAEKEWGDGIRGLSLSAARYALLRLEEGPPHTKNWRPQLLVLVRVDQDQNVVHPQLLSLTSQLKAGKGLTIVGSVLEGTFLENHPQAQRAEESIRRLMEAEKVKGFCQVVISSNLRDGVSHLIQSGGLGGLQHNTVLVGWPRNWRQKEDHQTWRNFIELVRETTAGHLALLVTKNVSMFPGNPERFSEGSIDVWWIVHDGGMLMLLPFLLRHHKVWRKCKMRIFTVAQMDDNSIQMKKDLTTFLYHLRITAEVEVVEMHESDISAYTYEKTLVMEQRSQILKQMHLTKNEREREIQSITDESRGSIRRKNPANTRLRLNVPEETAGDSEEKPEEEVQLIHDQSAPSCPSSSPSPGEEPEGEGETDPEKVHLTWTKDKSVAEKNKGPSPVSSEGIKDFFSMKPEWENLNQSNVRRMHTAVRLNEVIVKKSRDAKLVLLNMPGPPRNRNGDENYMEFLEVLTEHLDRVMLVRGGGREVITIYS
Assay: Tl influx FLIPR assay in HEK-293 cells expressing KCC2
Assay type: cell-based

EC50: 261 ± 22.2 nM
Substance: OV350 [compound 350]
